Source: the NIST ThermoML archive (doi:10.1021/je034087q)
Numbers after ± are expanded uncertainties.

Assay: xn = mol fraction of the nth substance listed
Settings: Fluid (supercritical or subcritical phases)

Q: What does the source list for CC(C)=O [acetone] + O=C=O?
A: mass density (335.15 K, 10350 kPa, x2 = 0.909): 583 ± 4 kg/m3; mass density (335.15 K, 10420 kPa, x2 = 0.909): 589 ± 4 kg/m3; mass density (335.15 K, 10500 kPa, x2 = 0.909): 593 ± 4 kg/m3; mass density (335.15 K, 10590 kPa, x2 = 0.909): 599 ± 4 kg/m3; mass density (335.15 K, 10680 kPa, x2 = 0.909): 604 ± 4 kg/m3; mass density (335.15 K, 10780 kPa, x2 = 0.909): 611 ± 4 kg/m3; mass density (335.15 K, 10890 kPa, x2 = 0.909): 616 ± 4 kg/m3; mass density (335.15 K, 11020 kPa, x2 = 0.909): 623 ± 4 kg/m3; mass density (335.15 K, 11150 kPa, x2 = 0.909): 628 ± 4 kg/m3; mass density (335.15 K, 11280 kPa, x2 = 0.909): 635 ± 4 kg/m3; mass density (335.15 K, 11440 kPa, x2 = 0.909): 640 ± 4 kg/m3; mass density (335.15 K, 11600 kPa, x2 = 0.909): 648 ± 4 kg/m3; mass density (335.15 K, 11790 kPa, x2 = 0.909): 653 ± 4 kg/m3; mass density (335.15 K, 12010 kPa, x2 = 0.909): 661 ± 4 kg/m3; mass density (335.15 K, 12240 kPa, x2 = 0.909): 667 ± 4 kg/m3; mass density (335.15 K, 12460 kPa, x2 = 0.909): 675 ± 4 kg/m3; mass density (335.15 K, 12750 kPa, x2 = 0.909): 681 ± 4 kg/m3; mass density (335.15 K, 13080 kPa, x2 = 0.909): 691 ± 4 kg/m3; mass density (335.15 K, 13400 kPa, x2 = 0.909): 697 ± 4 kg/m3; mass density (335.15 K, 13770 kPa, x2 = 0.909): 706 ± 4 kg/m3; mass density (335.15 K, 14150 kPa, x2 = 0.909): 711 ± 4 kg/m3; mass density (335.15 K, 14600 kPa, x2 = 0.909): 721 ± 5 kg/m3; mass density (336.35 K, 9960 kPa, x2 = 0.902): 531 ± 3 kg/m3; mass density (336.35 K, 10000 kPa, x2 = 0.902): 535 ± 3 kg/m3; mass density (336.35 K, 10030 kPa, x2 = 0.902): 538 ± 3 kg/m3; mass density (336.35 K, 10080 kPa, x2 = 0.902): 542 ± 3 kg/m3; mass density (336.35 K, 10110 kPa, x2 = 0.902): 545 ± 3 kg/m3; mass density (336.35 K, 10150 kPa, x2 = 0.902): 547 ± 3 kg/m3; mass density (336.35 K, 10190 kPa, x2 = 0.902): 551 ± 3 kg/m3; mass density (336.35 K, 10230 kPa, x2 = 0.902): 555 ± 3 kg/m3; mass density (336.35 K, 10260 kPa, x2 = 0.902): 558 ± 4 kg/m3; mass density (336.35 K, 10310 kPa, x2 = 0.902): 561 ± 4 kg/m3; mass density (336.35 K, 10360 kPa, x2 = 0.902): 566 ± 4 kg/m3; mass density (336.35 K, 10390 kPa, x2 = 0.902): 569 ± 4 kg/m3; mass density (336.35 K, 10450 kPa, x2 = 0.902): 573 ± 4 kg/m3; mass density (336.35 K, 10540 kPa, x2 = 0.902): 579 ± 4 kg/m3; mass density (336.35 K, 10610 kPa, x2 = 0.902): 583 ± 4 kg/m3; mass density (336.35 K, 10710 kPa, x2 = 0.902): 590 ± 4 kg/m3; mass density (336.35 K, 10810 kPa, x2 = 0.902): 595 ± 4 kg/m3; mass density (336.35 K, 10910 kPa, x2 = 0.902): 602 ± 4 kg/m3; mass density (336.35 K, 11020 kPa, x2 = 0.902): 606 ± 4 kg/m3; mass density (336.35 K, 11100 kPa, x2 = 0.902): 611 ± 4 kg/m3; mass density (336.35 K, 11200 kPa, x2 = 0.902): 616 ± 4 kg/m3; mass density (336.35 K, 11320 kPa, x2 = 0.902): 620 ± 4 kg/m3; mass density (336.35 K, 11420 kPa, x2 = 0.902): 625 ± 4 kg/m3; mass density (336.35 K, 11570 kPa, x2 = 0.902): 631 ± 4 kg/m3; mass density (336.35 K, 11700 kPa, x2 = 0.902): 638 ± 4 kg/m3; mass density (336.35 K, 11790 kPa, x2 = 0.902): 641 ± 4 kg/m3; mass density (336.35 K, 11950 kPa, x2 = 0.902): 645 ± 4 kg/m3; mass density (336.35 K, 12080 kPa, x2 = 0.902): 649 ± 4 kg/m3; mass density (336.35 K, 12210 kPa, x2 = 0.902): 654 ± 4 kg/m3; mass density (336.35 K, 12400 kPa, x2 = 0.902): 659 ± 4 kg/m3; mass density (336.35 K, 12570 kPa, x2 = 0.902): 663 ± 4 kg/m3; mass density (336.35 K, 12710 kPa, x2 = 0.902): 668 ± 4 kg/m3; mass density (336.35 K, 12940 kPa, x2 = 0.902): 673 ± 4 kg/m3; mass density (336.35 K, 13140 kPa, x2 = 0.902): 678 ± 4 kg/m3; mass density (336.35 K, 13320 kPa, x2 = 0.902): 684 ± 4 kg/m3; mass density (336.35 K, 13580 kPa, x2 = 0.902): 688 ± 4 kg/m3; mass density (336.35 K, 13900 kPa, x2 = 0.902): 694 ± 4 kg/m3; mass density (336.35 K, 14180 kPa, x2 = 0.902): 701 ± 4 kg/m3; mass density (336.35 K, 14450 kPa, x2 = 0.902): 706 ± 4 kg/m3; mass density (336.35 K, 14700 kPa, x2 = 0.902): 710 ± 4 kg/m3; mass density (336.35 K, 14920 kPa, x2 = 0.902): 715 ± 4 kg/m3; mass density (338.15 K, 10080 kPa, x2 = 0.902): 511 ± 3 kg/m3; mass density (338.15 K, 10110 kPa, x2 = 0.902): 515 ± 3 kg/m3; mass density (338.15 K, 10180 kPa, x2 = 0.902): 520 ± 3 kg/m3; mass density (338.15 K, 10230 kPa, x2 = 0.902): 524 ± 3 kg/m3; mass density (338.15 K, 10280 kPa, x2 = 0.902): 529 ± 3 kg/m3; mass density (338.15 K, 10340 kPa, x2 = 0.902): 533 ± 3 kg/m3; mass density (338.15 K, 10380 kPa, x2 = 0.902): 538 ± 3 kg/m3; mass density (338.15 K, 10430 kPa, x2 = 0.902): 542 ± 3 kg/m3; mass density (338.15 K, 10500 kPa, x2 = 0.902): 548 ± 3 kg/m3; mass density (338.15 K, 10560 kPa, x2 = 0.902): 552 ± 3 kg/m3; mass density (338.15 K, 10640 kPa, x2 = 0.902): 558 ± 4 kg/m3; mass density (338.15 K, 10710 kPa, x2 = 0.902): 563 ± 4 kg/m3; mass density (338.15 K, 10780 kPa, x2 = 0.902): 569 ± 4 kg/m3; mass density (338.15 K, 10860 kPa, x2 = 0.902): 573 ± 4 kg/m3; mass density (338.15 K, 10910 kPa, x2 = 0.902): 581 ± 4 kg/m3; mass density (338.15 K, 10980 kPa, x2 = 0.902): 584 ± 4 kg/m3; mass density (338.15 K, 11080 kPa, x2 = 0.902): 590 ± 4 kg/m3; mass density (338.15 K, 11200 kPa, x2 = 0.902): 595 ± 4 kg/m3; mass density (338.15 K, 11280 kPa, x2 = 0.902): 600 ± 4 kg/m3; mass density (338.15 K, 11350 kPa, x2 = 0.902): 603 ± 4 kg/m3; mass density (338.15 K, 11420 kPa, x2 = 0.902): 606 ± 4 kg/m3; mass density (338.15 K, 11510 kPa, x2 = 0.902): 610 ± 4 kg/m3; mass density (338.15 K, 11590 kPa, x2 = 0.902): 615 ± 4 kg/m3; mass density (338.15 K, 11630 kPa, x2 = 0.902): 616 ± 4 kg/m3; mass density (338.15 K, 11710 kPa, x2 = 0.902): 619 ± 4 kg/m3; mass density (338.15 K, 11790 kPa, x2 = 0.902): 622 ± 4 kg/m3; mass density (338.15 K, 11880 kPa, x2 = 0.902): 627 ± 4 kg/m3; mass density (338.15 K, 11950 kPa, x2 = 0.902): 629 ± 4 kg/m3; mass density (338.15 K, 12040 kPa, x2 = 0.902): 632 ± 4 kg/m3; mass density (338.15 K, 12110 kPa, x2 = 0.902): 634 ± 4 kg/m3; mass density (338.15 K, 12240 kPa, x2 = 0.902): 640 ± 4 kg/m3; mass density (338.15 K, 12330 kPa, x2 = 0.902): 642 ± 4 kg/m3; mass density (338.15 K, 12460 kPa, x2 = 0.902): 646 ± 4 kg/m3; mass density (338.15 K, 12570 kPa, x2 = 0.902): 651 ± 4 kg/m3; mass density (338.15 K, 12700 kPa, x2 = 0.902): 654 ± 4 kg/m3; mass density (338.15 K, 12880 kPa, x2 = 0.902): 659 ± 4 kg/m3; mass density (338.15 K, 13010 kPa, x2 = 0.902): 663 ± 4 kg/m3; mass density (338.15 K, 13200 kPa, x2 = 0.902): 668 ± 4 kg/m3; mass density (338.15 K, 13320 kPa, x2 = 0.902): 671 ± 4 kg/m3; mass density (338.15 K, 13480 kPa, x2 = 0.902): 675 ± 4 kg/m3; mass density (338.15 K, 13710 kPa, x2 = 0.902): 680 ± 4 kg/m3; mass density (338.15 K, 13860 kPa, x2 = 0.902): 684 ± 4 kg/m3; mass density (338.15 K, 14080 kPa, x2 = 0.902): 689 ± 4 kg/m3; mass density (338.15 K, 14300 kPa, x2 = 0.902): 693 ± 4 kg/m3; mass density (338.15 K, 14560 kPa, x2 = 0.902): 699 ± 4 kg/m3; mass density (338.15 K, 14780 kPa, x2 = 0.902): 700 ± 4 kg/m3; mass density (338.15 K, 15010 kPa, x2 = 0.902): 705 ± 4 kg/m3
